Assay results: patent US11820822B2, “Methods for sensitizing cancer cells to T cell-mediated killing by modulating molecular pathways” (DANA-FARBER CANCER INSTITUTE, INC., priority 2017, dated 2023)

Experiments:
[1] = tested on: B16F10-Cas9 cells pulsed with SIINFEKL peptide, co-cultured with OT-I T cells; assay: Genome-scale CRISPR-Cas9 screen, selection with OT-I T cells; format: cell-based, mouse; settings: Table 3; B16F10-Cas9 cells pulsed with SIINFEKL, co-cultured with OT-I T cells 1:1 for one day; negative = depleted, positive = enriched
[2] = tested on: B16F10-Cas9 cells co-cultured with Pmel-1 T cells; assay: Genome-scale CRISPR-Cas9 screen, selection with Pmel-1 T cells; format: cell-based, mouse; settings: Table 3; B16F10-Cas9 cells pre-treated with IFNγ, co-cultured with Pmel-1 T cells 1:1 for three days; negative = depleted, positive = enriched

Row | Sequence | OT1 (sgRNA Log(2) fold change, OT-I selection versus control T cells) [1] | Pmel+ (sgRNA Log(2) fold change, Pmel-1 selection versus control T cells) [2]
1 | GAAAAGCAAGCGTAATCTCC (chemistry not fully specified) | 2.70 | 8.13
2 | GAACACTCAGCAAATTACAG (chemistry not fully specified) | -2.58 | -0.81
3 | GAAGACCAAAGAAGTTCATG (chemistry not fully specified) | -0.52 | 2.37
4 | GAAGTAAAGGGATTTAACAG (chemistry not fully specified) | -2.59 | -0.84
5 | GAATACGAAGCAGAAAAGGT (chemistry not fully specified) | -2.50 | 0.00
6 | GAATCCTCCAGAAGGAATCG (chemistry not fully specified) | 0.26 | 2.99
7 | GAATCTGAATGGAGGAACCT (chemistry not fully specified) | -2.21 | 0.00
8 | GAATGATATTATAGCGACGA (chemistry not fully specified) | -2.20 | 0.59
9 | GAATTGCAACGCCCACACCG (chemistry not fully specified) | -3.93 | 0.39
10 | GACAAGATGACAAACCTGGT (chemistry not fully specified) | 1.65 | 3.45
11 | GAGATCTGCACATTCCGCAC (chemistry not fully specified) | -2.69 | -0.78
12 | GAGTTGCAGCCAGATACGCG (chemistry not fully specified) | -3.25 | -1.28
13 | GATATGCTACAGGACCTTCG (chemistry not fully specified) | -2.83 | 0.44
14 | GATGTGTCCCTAGTCTACCG (chemistry not fully specified) | -3.40 | -0.24
15 | GCAAATGTAGAAATGTCGTG (chemistry not fully specified) | -2.34 | -0.65
16 | GCAAGAGGTTATCAAACACG (chemistry not fully specified) | -2.17 | -0.79
17 | GCACTGCTCTCATAACCCAT (chemistry not fully specified) | -0.77 | 3.01
18 | GCAGGGGTCTCCTTATGTCG (chemistry not fully specified) | -2.67 | -1.13
19 | GCCAACATCTGCTTACTCGC (chemistry not fully specified) | -2.55 | -1.97
20 | GCCAGCTTTCTCGCACGTGG (chemistry not fully specified) | -0.61 | -2.01
21 | GCCCTTTACTTTCAGTACGG (chemistry not fully specified) | -2.52 | -0.93
22 | GCCTGTACCACGCAGCCAAG (chemistry not fully specified) | -2.37 | 0.00
23 | GCGTCGTCGACTTATGACTT (chemistry not fully specified) | -3.36 | -0.05
24 | GCTCAAGTACTCGCCCGACC (chemistry not fully specified) | -2.85 | -0.69
25 | GCTCACCACGGGCTGCAACG (chemistry not fully specified) | 0.43 | 2.34
26 | GCTCGATGGATAGCATTCAC (chemistry not fully specified) | -3.98 | 0.17

Row | Sequence | OT1 (sgRNA Log(2) fold change, OT-I selection versus control T cells) [1] | Pmel+ (sgRNA Log(2) fold change, Pmel-1 selection versus control T cells) [2]
27 | GCTGCAGAGGCAGTTTGATG (chemistry not fully specified) | -3.06 | -0.70
28 | GCTGCCCCGCAGGATCATCA (chemistry not fully specified) | -2.94 | -2.00
29 | GCTGGGGAACTCAATTATAG (chemistry not fully specified) | -0.78 | 2.03
30 | GCTGTGGGGACTGCTAAAAG (chemistry not fully specified) | -1.12 | 2.22
31 | GCTGTTACTCCAGAGACACA (chemistry not fully specified) | -0.23 | -2.27
32 | GGAAACGTGGCATGTCTCGG (chemistry not fully specified) | 1.93 | 2.66
33 | GGAATCCCTGTGCTGATCGT (chemistry not fully specified) | -2.76 | -0.49
34 | GGACAAGACATGGAGACAGA (chemistry not fully specified) | -2.11 | 0.83
35 | GGACACCAAGTTATTCCGTG (chemistry not fully specified) | -3.20 | -2.89
36 | GGACGAGAGCAACATAAACA (chemistry not fully specified) | -0.03 | 2.15
37 | GGATAGACGCCCAGCCACTG (chemistry not fully specified) | 3.32 | 9.31
38 | GGATCCTGGCGATTCAACAT (chemistry not fully specified) | -3.11 | 0.74
39 | GGCCCCGACTCAGACCCGCG (chemistry not fully specified) | 5.15 | 3.60
40 | GGTATTCCCAGCATACGACA (chemistry not fully specified) | 3.32 | 5.25
41 | GGTCATACTTAAAAGCACAA (chemistry not fully specified) | -2.07 | -0.81
42 | GGTTCCTTGCGGGACTCCGT (chemistry not fully specified) | -3.31 | -2.53
43 | GGTTCGCTTCTTCCAAACCA (chemistry not fully specified) | -2.41 | -2.08
44 | GTAGACAACAACATTCGCAG (chemistry not fully specified) | 0.33 | 2.97
45 | GTATAAGCCATTACGACGCA (chemistry not fully specified) | -2.81 | -1.52
46 | GTCTCTAGCAAAGTCCACGC (chemistry not fully specified) | -0.40 | 3.25
47 | GTCTTGTGCAAAAAGCCCGA (chemistry not fully specified) | -2.54 | -0.15
48 | GTGAGCCTGAGGAACCTGCT (chemistry not fully specified) | 1.01 | 3.08
49 | GTTTCTGGCATCCAAAGTAG (chemistry not fully specified) | -2.50 | 0.80
50 | TAAAAGTCCCTCCCTCAAAG (chemistry not fully specified) | -2.56 | 0.00
51 | TAAGCGTTGTTGACTACATG (chemistry not fully specified) | -3.02 | 0.00
52 | TAATTGCTGAGAATGTACTC (chemistry not fully specified) | -2.54 | 0.00
